According to EP0729362B1, “TRANSDERMAL COMPOSITION OF N- N- 5- 4-(AMINOIMINOMETHYL)PHENYL]-1-OXOPENTYL]-L-alpha-ASPARTYL]-L-PHENYLALANINE OR ITS ESTERS AND THEIR PHARMACEUTICALLY ACCEPTABLE SALTS” (G.D. SEARLE & CO., priority 1993, dated 1995):

Test: transdermal shaved rat model: delivery of tritiated compound from a gel patch, counted in urine and feces
Assay type: in vivo, Rats
Settings: 2.5 cm^2 patch
Excerpt: Rats were anesthetized with N2O/O2 and [sequence] fluorocarbon anesthesia using a metering device (Quantifier VMC Anesthesia Machine, Matrix Media Inc.) The rat's back was carefully shaved using an electric razor the day before the transdermal experiment, and no abrasions in the skin surface were apparent.
Compound was applied to the skin using a Hilltop Chamber® transdermal delivery plastic device, in which the compound was contained in a 3% hydroxypropyl cellulose gel. The device was glued in place using cyanomethacrylate (Superbinder 495, Newark Electronics).
The aqueous formulation was 2% in N-[N-[5-[4-(aminoiminomethyl)phenyl]-1-oxopentyl]-L-α-aspartyl]-L-phenylalanine, monohydrochloride (10 mg N-[N-[5-[4-(aminoiminomethyl)phenyl]-1-oxopentyl]-L-α-aspartyl]-L-phenylalanine, monohydrochloride 0.5 ml gel/2.5 cm^2 patch). […] The amount of compound in a sample was calculated from the number of counts detected and the specific radioactivity of the compound in the patch.
Urine and feces were collected daily after patch application as indicated in the Table I. Counts were combined to achieve the total amount delivered. Urine was counted directly by scintillography (Hionic Fluid, Packard Co., Mark III), while feces, were processed by mechanical mixing in saline followed by oxidization of a dried aliquot to tritiated water in an oxidizer (Oxidizer Machine, Packard).

| Compound | average amount delivered into the urine (amount calculated from [3H] counts) [mg] | average amount delivered (urine and feces counts combined for the total amount delivered) [mg] |
| --- | --- | --- |
| N-[N-[5-[4-(aminoiminomethyl)phenyl]-1-oxopentyl]-L-α-aspartyl]-L-phenylalanine, monohydrochloride | 48 |  |
| CCOC(=O)C[C@H](NC(=O)CCCCc1ccc(C(=N)N)cc1)C(=O)N[C@@H](Cc1ccccc1)C(=O)OCC [N-[N-[5-[4-(aminoiminomethyl)phenyl]-1-oxopentyl]-L-α-aspartyl]-L-phenylalanine diethyl ester] |  | 4.6 ± 1.9 |
